The record followed here is patent publication US11753408B2, “Compounds and method for blocking transmission of malarial parasite” (The United States of America, as represented by the …, priority 2016, dated 2023).

Like-named read-outs stand apart in the source and are kept apart here. Bounds are passed on as bounds.

One data set concerns the target mTOR (Homo sapiens, UniProt P42345). Kind of data set: mTOR activity (no method described). Type of data set: biochemical.
The test system of data set [1] is Stage III-V gametocytes (blood stage P. falciparum parasites). Kind of data set: In vitro drug activity on gametocytes (AlamarBlue viability assay). Type of data set: cell-based, Plasmodium falciparum. The settings on record: read-out: Gametocyte EC50. How it is done: Cell culture. Asexual parasites of P. falciparum strain 3D7 were cultured as described previously [Trager W, et al., Journal of Parasitology 2005, 91: 484-486], Stage III-V gametocytes were selected and enriched with 3-day treatment with 50 mM N-acetylglucosamine (NAG) and the following Percoll density gradient centrifugation after gametocyte production [Tanaka T Q, et al., Molecular and Biochemical Parasitology, 2011, 111: 160-163], Gametocytes of HB3 and Dd2 strains were produced and then set up for assay in a similar process. HepG2 cells (ATCC, cat. no. 77400) were cultured in 175-cm^2 tissue culture flasks with 30 ml growth medium at 37° C. in a 5% CO2 humidified atmosphere. Growth medium was made with Dulbecco's Modified Eagle Medium with 10% fetal bovine serum (FBS). Growth medium was replaced every other day and cells were passed at 75% confluence.
Compound screening experiments were performed as previously described [Tanaka T Q et al., Molecular and Biochemical Parasitology, 2013, 3188: 20-25], Briefly, 2.5 μl/well incomplete medium was dispensed into each well of 1,536-well plates using the Multidrop Combi followed by 23 nl compound transferring using the NX-TR Pintool (WAKO Scientific Solutions, San Diego, Calif.). 2.5 μl/well of gametocytes was dispensed with a seeding density of 20,000 cells/well using the Multidrop Combi. The assay plates were incubated for 72 h at 37° C. with 5% CO2. After addition of 5 μl/well of 2× AlamarBlue dye (Life Technologies, cat. no. DALI 100), the plates were incubated for 24 h at 37° C. with 5% CO2 and were read in a fluorescence detection mode (Ex=525 nm, Em=598 nm) on a ViewLux plate reader (PerkinElmer).
Stage III-V gametocytes (blood stage P. falciparum parasites) were enriched with treatment with 50 mM N-acetylglucosamine (NAG) and Percoll density gradient centrifugation as described previously^1. Briefly, 2.5 μl/well incomplete medium was dispensed into each well of 1,536-well plates using the Multidrop Combi followed by 23 nl compound transfer using the NX-TR Pintool (WAKO Scientific Solutions, San Diego, Calif.). Then, 2.5 μl/well of gametocytes was dispensed with a seeding density of 20,000 cells/well using the Multidrop Combi. The assay plates were incubated for 72 h at 37° C. with 5% CO2. After addition of 5 μl/well of 2× AlamarBlue dye (Life Technologies, cat. no. DALI 100), the plates were incubated for 24 h at 37° C. with 5% CO2 and then were read in a fluorescence detection mode (Ex=525 nm, Em=598 nm) on a ViewLux plate reader (PerkinElmer).
Background: Resazurin is reduced to fluorescent resorufin, in cell work by metabolically active cells.

The test system of data set [2] is Asexual parasites of P. falciparum strain 3D7. Kind of data set: In vitro drug activity on asexual parasites (SYBR Green assay). Type of data set: cell-based, Plasmodium falciparum. Summed up: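 SYBR Green I fluorescence (ex 490, em 520 nm) was read after freeze-thaw lysis and 30 min staining at room temperature. Before that, drug-treated cultures (0.5% parasitemia, 2% hematocrit, DMSO ≤0.5%) were incubated 72 h, in duplicate.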

Data set [3] is described as follows: Microsomal stability (rat). Type of data set: in vitro ADME. The note with it: rat microsomes.
Another data set is described as follows: Solubility at pH 7.4. Type of data set: physicochemical.
[4] abbreviates: P. falciparum stage III-V gametocytes, 72 h incubation, AlamarBlue.
[5] abbreviates: P. falciparum 3D7 asexual parasites, 72 h, SYBR Green.

In general, EC50 refers to the concentration at which the effect is half-maximal. With `Nc1cc(-c2ccc3ncc4ccc(=O)n(-c5ccc(C(=O)N6CCOCC6)cc5)c4c3c2)ccc1Cl` [Compound 113], on mTOR, the mTOR was 1.37 µM. Besides, the figures for the EC50 in data set [1] and in data set [2] were 75.9 nM and 29.9 nM, respectively. Moreover, the “Microsomal Stability (rat) T1/2” value in data set [3] was 13.6 min. Moreover, the “Sol @ pH 7.4” value in “Solubility at pH 7.4” is <1.0 ug/mL.
For the molecule `N#Cc1cccc(-n2c(=O)[nH]c3cnc4ccc(-c5ccc(Cl)cc5)cc4c32)c1` [Compound 397], the mTOR result on mTOR is given as “Inactive”. Moreover, the concentration for a half-maximal effect (EC50) in data set [1] was determined as 232 nM; in data set [2] it was 268 nM. For the same molecule, the “Microsomal Stability (rat) T1/2” value in data set [3] was >30.0 min. In addition, in the data set “Solubility at pH 7.4”, the “Sol @ pH 7.4” value is reported as <1.0 ug/mL.
For `CC1CC1NC(=O)c1ccc(-n2c(=O)ccc3cnc4ccc(-c5ccc(CN(C)C)cc5)cc4c32)cc1` (stereo not shown) [Compound 177], the mTOR at mTOR came to 9.038 µM. Moreover, the EC50 in data set [1] worked out at 902 nM. Also, in the data set “Solubility at pH 7.4”, the “Sol @ pH 7.4” value is >74.00 ug/mL.
`Cn1c(=O)n(-c2cccc(C#N)c2)c2c3cc(-c4ccc5[nH]cnc5c4)ccc3ncc21` [Compound 445] registered a mTOR at mTOR of 0.6303 µM. Further, the EC50 came out at 735 nM in data set [1] and 269 nM in data set [2].
`Cc1cc(N2CCNCC2)c(C#N)cc1-n1c(=O)n(C)c2cnc3ccc(-c4ccc(Cl)cc4)cc3c21` [Compound 415] yielded a mTOR on mTOR of 15.87 µM. For the same molecule, the EC50 worked out at 18.6 nM in data set [1] and 21.4 nM in data set [2].
In turn, `Cc1ccc(C#N)cc1-n1c(=O)n(C)c2cnc3ccc(-c4ccc(F)c(C#N)c4)cc3c21` [Compound 408] gave a mTOR on mTOR of 100 µM. In addition, the EC50 in data set [1] came to 305 nM; in data set [2], 10 nM. Further, the “Sol @ pH 7.4” value in “Solubility at pH 7.4” is 0 ug/mL.
For `Cc1ccc(C#N)cc1-n1c(=O)n(C)c2cnc3ccc(-c4ccc(F)cc4)cc3c21` [Compound 411], in that order: 100 µM, 109 nM, 61.4 nM and 0 ug/mL.
The corresponding values for `CC1CC1NC(=O)c1ccc(-n2c(=O)ccc3cnc4ccc(-c5ccc(Cl)cc5)cc4c32)cc1` (stereo not shown) [Compound 176] are 0.5562 µM, 283 nM, 90.2 nM and <0.10 ug/mL.
In turn, `Cc1ccc(C#N)cc1-n1c(=O)n(C)c2cnc3ccc(-c4cccc(C#N)c4)cc3c21` [Compound 412] returned a mTOR at mTOR of 100 µM. Further, the EC50 in data set [1] came to 39.9 nM; in data set [2] it was 6.57 nM. In addition, the “Sol @ pH 7.4” value in “Solubility at pH 7.4” is on record as 0 ug/mL.
Regarding `O=C(c1ccc(-n2c(=O)ccc3cnc4ccc(-c5ccc(Cl)cc5)cc4c32)c(Cl)c1)N1CCOCC1` [Compound 159], the mTOR at mTOR was 3.523 µM. The EC50 in data set [1] came to 320 nM; in data set [2], 91.6 nM.
In turn, `CC(C)(N)c1ccc(-c2ccc3ncc4ccc(=O)n(-c5ccc(C(=O)N6CCOCC6)cc5)c4c3c2)cc1` [Compound 187] had a mTOR at mTOR of 0.7246 µM. Besides, the EC50 in data set [1] is 4590 nM; in data set [2], 1600 nM. In the data set “Solubility at pH 7.4”, the “Sol @ pH 7.4” value is on record as 0 ug/mL.
`NC1(c2ccc(-c3ccc4ncc5ccc(=O)n(-c6ccc(C(=O)N7CCOCC7)cc6)c5c4c3)cc2)CC1` [Compound 178] registered a mTOR at mTOR of 5.312 µM. Further, the figures for the EC50 in data set [1] and in data set [2] were 918 nM and 445 nM, respectively.
For `Cn1c(=O)n(-c2cccc(C#N)c2)c2c3cc(-c4ccc(C#N)cc4)ccc3ncc21` [Compound 442], in that order: 100 µM, 1990 nM and 449 nM.
As for `COc1cc(C(=O)NC2CC2)ccc1-n1c(=O)ccc2cnc3ccc(-c4ccc(CN(C)C)cc4)cc3c21` [Compound 190], on mTOR, the mTOR turned out to be 10.68 µM. In addition, the EC50 in data set [1] turned out to be 248 nM. Also, the “Microsomal Stability (rat) T1/2” value in data set [3] is >30 min. Further, the “Sol @ pH 7.4” value in the data set “Solubility at pH 7.4” is given as >77 ug/mL.
On to `NC(=O)c1cccc(-n2c(=O)ccc3cnc4ccc(-c5ccc(N)nc5)cc4c32)c1` [Compound 333], for which the mTOR at mTOR turned out to be 0.2135 µM. Further, the EC50 in data set [1] was 411 nM; in data set [2], 239 nM.
In turn, `Cn1c(=O)n(-c2cccc(C#N)c2)c2c3cc(-c4ccc(CCN)cc4)ccc3ncc21` [Compound 413] displayed a mTOR at mTOR of 2.73 µM. For the same molecule, the EC50 in data set [1] was 54 nM; in data set [2], 29.4 nM. Also, in “Solubility at pH 7.4”, the “Sol @ pH 7.4” value came out at 0 ug/mL.
On to `O=C(c1ccc(-n2c(=O)ccc3cnc4ccc(-c5ccccc5)cc4c32)cc1)N1CCOCC1` [Compound 125], for which the mTOR at mTOR was 0.5061 µM. Besides, the values for the EC50 in data set [1] and in data set [2] were 39.8 nM and 8.08 nM, respectively.
The corresponding values for `Cn1c(=O)n(-c2ccc(N3CCNCC3)c(C#N)c2)c2c3cc(-c4ccc(F)cc4)ccc3ncc21` [Compound 414] are 0.5842 µM, 38.7 nM and 14.2 nM.
Turning to `CN1C(=O)CCc2cc(-n3c(=O)ccc4cnc5ccc(-c6ccc(Cl)cc6)cc5c43)ccc21` [Compound 359], the results for the concentration for a half-maximal effect (EC50) in data set [1] (setting [4]) and in data set [2] (setting [5]) were 130 nM and 23.4 nM, respectively. In data set [3], the “Microsomal Stability (rat) T1/2” value was found to be 14.9 min. Besides, the “Sol @ pH 7.4 (ug/mL)” value in “Solubility at pH 7.4” stood at 0.06 ug/mL.
For the molecule `COc1cc(-c2ccc3ncc4c(c3c2)n(-c2cc(C#N)ccc2C)c(=O)n4C)ccc1F` [Compound 409], the mTOR on mTOR was found to be 50 µM. Besides, the EC50 was found to be 106 nM in data set [1] and 52.9 nM in data set [2]. Also, the “Sol @ pH 7.4” value in the data set “Solubility at pH 7.4” was 0 ug/mL.
As to `CCNS(=O)(=O)c1ccc(-n2c(=O)ccc3cnc4ccc(-c5ccc(Cl)cc5)cc4c32)cc1` [Compound 41], the EC50 stood at 89.4 nM in data set [1] (setting [4]) and 23.1 nM in data set [2] (setting [5]). Also, the “Microsomal Stability (rat) T1/2” value in data set [3] amounted to 6.3 min. The “Sol @ pH 7.4 (ug/mL)” value in “Solubility at pH 7.4” was <1.0 ug/mL.
With `COc1cccc(-c2ccc3ncc4ccc(=O)n(-c5ccc(C(=O)N6CCOCC6)cc5)c4c3c2)c1` [Compound 123], the mTOR at mTOR turned out to be 0.857 µM. The results for the EC50 in data set [1] and in data set [2] were 442 nM and 145 nM, respectively. In addition, the “Microsomal Stability (rat) T1/2” value in data set [3] is reported as 7.3 min.
The molecule `CN(C)CCc1ccc(-c2ccc3ncc4ccc(=O)n(-c5ccc(C(=O)N6CCOCC6)cc5)c4c3c2)cc1` [Compound 186] came in with a mTOR on mTOR of 12.44 µM. Besides, the EC50 is 573 nM in data set [1] and 207 nM in data set [2].
Turning to `Cc1cc(N2CCNCC2)c(C#N)cc1-n1c(=O)n(C)c2cnc3ccc(-c4ccc(F)cc4)cc3c21` [Compound 416], the mTOR on mTOR was 0.9306 µM. The EC50 in data set [1] was found to be 21.6 nM; in data set [2], 39.6 nM.
Consider `CS(=O)(=O)c1ccc(-n2c(=O)ccc3cnc4ccc(-c5ccc(F)cc5)cc4c32)cc1` [Compound 29], for which the EC50 in data set [1] (setting [4]) came to 88.5 nM; in data set [2] (setting [5]) it was 19.8 nM. For the same molecule, the “Microsomal Stability (rat) T1/2” value in data set [3] was >30.0 min. In addition, in “Solubility at pH 7.4”, the “Sol @ pH 7.4 (ug/mL)” value is listed as <1.0 ug/mL.
The molecule `Cc1ccc(C#N)cc1-n1c(=O)n(C)c2cnc3ccc(-c4ccc(Cl)c(C#N)c4)cc3c21` [Compound 410] yielded a mTOR on mTOR of 100 µM. For the same molecule, the EC50 in data set [1] is 36.3 nM; in data set [2] it was 2.49 nM. In addition, in the data set “Solubility at pH 7.4”, the “Sol @ pH 7.4” value is reported as 0 ug/mL.
For the molecule `Cc1c(C#N)cccc1-n1c(=O)ccc2cnc3ccc(-c4ccc(CN(C)C)cc4)cc3c21` [Compound 10], the EC50 in data set [1] (setting [4]) was determined as 469 nM; in data set [2] (setting [5]), 72.2 nM. For the same molecule, in data set [3], the “Microsomal Stability (rat) T1/2” value amounted to 18 min. Further, the “Sol @ pH 7.4 (ug/mL)” value in the data set “Solubility at pH 7.4” is on record as >66 ug/mL.
For `CS(=O)(=O)c1ccc(-n2c(=O)ccc3cnc4ccc(-c5ccc(Cl)c(O)c5)cc4c32)cc1` [Compound 26], in that order: 178 nM, 37.8 nM, >30.0 min and 1.2 ug/mL.
